According to ChEMBL document CHEMBL1122397, “Synthesis and pharmacological characterization of (+/-)-5,9 alpha-dimethyl-2-[2-(4-fluorophenyl)ethyl]-2'-hydroxy-6,7-benzomorphan (fluorophen), a ligand suitable for visualization of opiate receptors in vivo” (J Med Chem, 1983):

Assays:
[1] = species: Rattus norvegicus; assay: Ability to displace 50% of [3H]- labeled DADLE in rat brain homogenate
[2] = molecular target: Mu-type opioid receptor (Cavia porcellus) (UniProt P97266); assay: Relative potency to induce 50% of maximal effect in guinea pig ileum expressing Opioid receptor mu 1; format: tissue-based
[3] = molecular target: T1, Kappa-type opioid receptor (Homo sapiens, UniProt P41145); assay: Ability to induce 50% of maximal effect in rabbit vas deferens expressing Opioid receptor kappa 1; format: tissue-based, Oryctolagus cuniculus
[4] = molecular target: Delta-type opioid receptor (Mus musculus) (UniProt P32300); assay: Relative potency to induce 50% of maximal effect in mouse vas deferens expressing Opioid receptor delta 1
[5] = species: Rattus norvegicus; assay: Ability to displace 50% of (-) naloxone(1.0) in rat brain homogenate
[6] = molecular target: Mu-type opioid receptor (Cavia porcellus, UniProt P97266); assay: Ability to induce 50% of maximal effect in guinea pig ileum expressing Opioid receptor mu 1; format: tissue-based
[7] = molecular target: T1, Kappa-type opioid receptor; assay: Relative potency to induce 50% of maximal effect in rabbit vas deferens expressing Opioid receptor kappa 1; details: Oryctolagus cuniculus
[8] = species: Rattus norvegicus; assay: Relative potency in displacing (-) naloxone(1.0) in rat brain homogenate
[9] = species: Rattus norvegicus; assay: Relative potency in displacing [3H]- labeled DADLE in rat brain homogenate
[10] = species: Rattus norvegicus; assay: (§1) Ability to displace 50% of (+/-) ethylketocyclazocine (2.8) in rat brain homogenate
[11] = species: Rattus norvegicus; assay: Relative potency in displacing ((+/-) ethylketocyclazocine (2.8)) in rat brain homogenate
[12] = molecular target: Opioid receptor (Rattus norvegicus, UniProt P33533+P34975+P33535); assay: as §1; format: tissue-based
[13] = species: Mus musculus; assay: cells; details: Rattus norvegicus, Brain, 3 h

T1 sequence (P41145 whole entry): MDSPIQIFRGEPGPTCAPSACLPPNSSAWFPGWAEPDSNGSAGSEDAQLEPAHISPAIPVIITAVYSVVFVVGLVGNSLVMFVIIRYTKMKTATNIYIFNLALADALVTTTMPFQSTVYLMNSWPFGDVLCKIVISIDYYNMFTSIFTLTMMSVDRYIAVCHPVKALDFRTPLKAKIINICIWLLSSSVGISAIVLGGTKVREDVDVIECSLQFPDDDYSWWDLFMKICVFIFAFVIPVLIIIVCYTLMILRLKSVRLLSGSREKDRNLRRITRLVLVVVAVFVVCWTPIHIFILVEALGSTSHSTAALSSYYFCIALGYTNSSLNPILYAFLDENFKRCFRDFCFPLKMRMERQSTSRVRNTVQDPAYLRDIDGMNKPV
Delta-type opioid receptor (Mus musculus), sequence (P32300 whole entry, looked up): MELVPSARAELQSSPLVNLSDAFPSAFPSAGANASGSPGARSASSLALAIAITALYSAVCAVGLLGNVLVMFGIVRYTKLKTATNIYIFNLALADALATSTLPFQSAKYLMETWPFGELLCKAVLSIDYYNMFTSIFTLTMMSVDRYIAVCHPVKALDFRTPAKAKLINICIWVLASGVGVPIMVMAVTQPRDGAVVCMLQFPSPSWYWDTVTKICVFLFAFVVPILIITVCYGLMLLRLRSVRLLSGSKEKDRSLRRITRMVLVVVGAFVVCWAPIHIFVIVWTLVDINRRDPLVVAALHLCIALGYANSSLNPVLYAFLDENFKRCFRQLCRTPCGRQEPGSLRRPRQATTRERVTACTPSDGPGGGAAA
Mu-type opioid receptor, sequence (P97266 whole entry): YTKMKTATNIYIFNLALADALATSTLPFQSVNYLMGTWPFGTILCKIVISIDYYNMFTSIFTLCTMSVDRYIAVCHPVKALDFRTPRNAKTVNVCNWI
Mu-type opioid receptor (Cavia porcellus), sequence (P97266 whole entry): as above

Question: Which IC50 [1] does the source give for `CC1C2Cc3ccc(O)cc3C1(C)CCN2CCc1ccccc1` (stereo not drawn) [PHENAZOCINE] here?
Answer: 0.026 µM

Question: And the Relative Potency [2]?
Answer: 7.9

Question: And the IC50 [3]?
Answer: 0.121 µM

Question: And the Relative Potency [4]?
Answer: 1.2

Question: What about the IC50 [5] of the same molecule?
Answer: 0.082 µM

Question: What about the IC50 [6] of the same molecule?
Answer: 0.0098 µM

Question: What about the Relative Potency [7] of the same molecule?
Answer: 0.4

Question: What about the Relative Potency [8] of the same molecule?
Answer: 2.4

Question: And the Relative Potency [9]?
Answer: 0.42

Question: And the IC50 [10]?
Answer: 0.065 µM

Question: And the Relative Potency [11]?
Answer: 0.13

Question: How did the IC50 [12] turn out when `CC[C@@]12CCN(CC3CC3)C(C(=O)c3ccc(O)cc31)[C@@H]2C` [ETHYLKETOCYCLAZOCINE] was run?
Answer: 0.0084 µM

Question: For `CC(C)C[C@H](NC(=O)[C@H](Cc1ccccc1)NC(=O)CNC(=O)CNC(=O)[C@@H](N)Cc1ccc(O)cc1)C(=O)O` [ENKEPHALIN], which IC50 [13] is on record?
Answer: 0.011 µM
